The test concerns GUMC-403. Kind of test: viability at highest tested concentration (max response) relative to DMSO (% of DMSO control); higher = less cytotoxic. The note with it: library / dose series: MIPE library, 11-point 1:3 dilution, 48 h. The method in brief: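 This value is viability at the highest tested concentration relative to vehicle control. GUMC-403 papilloma cells from a patient, grown by conditional reprogramming, were plated at 700/well in 1536-well plates and given 23 nL of compound by pin tool for 48 h. CellTiter-Glo luminescence on a ViewLux was normalised with vehicle wells at 100% and empty wells at 0%.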

Several values for one entry are separate records, joined by “and”; a condition that tells them apart may be missing. Equal entries are not always repeated.

`Cc1coc2c1C(=O)C(=O)c1c-2ccc2c(C)cccc12` had a viability (top concentration 46.1 µM) of 115.
Take `COc1cc2ncnc(Nc3cccc(Br)c3)c2cc1OC`: under “top concentration 46.1 µM”, the viability is 81.6.
As to `CCc1cccc2c3c([nH]c12)C(CC)(CC(=O)O)OCC3` (stereo not given), the viability (top concentration 46.1 µM) worked out at 132.
As to `COc1cc(CCc2cc(NC(=O)c3ccc(N4C[C@@H](C)N[C@@H](C)C4)cc3)n[nH]2)cc(OC)c1`, under “top concentration 46.1 µM”, the viability was determined as 81.8.
The compound `CN1CC(=O)N2[C@H](c3ccc4c(c3)OCO4)c3[nH]c4ccccc4c3C[C@@H]2C1=O` had a viability (top concentration 46.1 µM) of 91.5.
On the same count and under the same terms, the figure for `CN1CC/C(CC1)=C3\c4ccccc4CC(=O)c2sccc23` is 97.2.
For the compound `O=c1[nH]c2ccccc2n1CCCN1CCC(n2c(=O)[nH]c3cc(Cl)ccc32)CC1`, the viability (top concentration 46.1 µM) came to 130.
As for `Cc1cncc2cccc([S+](=O)([O-])N3CCCN(C(=O)CN)C[C@@H]3C)c12`, the viability (top concentration 46.1 µM) came out at 138.
`OC1=C(C=CC=C1)C2=CC=C(C=C2)C3=CSC4=C3C(=C(/C#N)C(=O)N4)/O` showed a viability (top concentration 46.1 µM) of 125.
On the same count and under the same terms, as for `CN(CC#C)C/C1=C/C2=CC=CC=C2OC3=CC=CC=C13`, the figure is 81.4.
Take `NC/1=N/C(=O)N/C=C1F`: under “top concentration 46.1 µM”, the viability was 104.
On to `Cc1ccccc1C(C(=O)NC1CCCC1)N(C(=O)Cn1cnc2ccccc21)c1cccc(F)c1` (stereo not given), for which the viability (top concentration 46.1 µM) was 101.
Still for that read-out and setting: the figure for `CCC[C@H]1C[C@H](C(=O)N[C@@H]([C@@H]2O[C@@H](SC)[C@@H](O)[C@@H](O)[C@H]2O)[C@H](C)Cl)N(C)C1` is 118.
In the case of `O=C(O)[C@H](Cc1c[nH]c2ccccc12)N1C(=O)c2ccccc2C1=O`, the viability (top concentration 92.2 µM) stood at 116.
Under “top concentration 46.1 µM”, `CC/C(=C(\c1ccccc1)c1ccc(OCCN(C)C)cc1)c1ccccc1` had a viability of 96.
Still for that read-out and setting: as for `Cc1ccc([S+](=O)([O-])N[C@@H](Cc2ccccc2)C(=O)CCl)cc1`, the figure is 90.3; as for `c1coc(CNc2ncnc3nc[nH]c23)c1`, 108; as for `O=C(Nc1ccccc1-c1cn2c(CN3CCNCC3)csc2n1)c1cnc2ccccc2n1`, 81.3.
`CCN(CC)CCCCNc1ncc2cc(-c3cc(OC)cc(OC)c3)c(NC(=O)NC(C)(C)C)nc2n1`: where the note is “top concentration 46.1 µM”, the viability came to 128.
Still for that read-out and setting: as for `C[C@@]1(C(=O)Nc2ccc(F)nc2)CCCN1c1nc(Nc2cc(C3CC3)[nH]n2)c2cccn2n1`, the figure is 63.1.
Compound `O=C1NC(=O)/C(=C/c2ccc3nccnc3c2)S1` registered a viability (top concentration 23 µM) of 49.8.
In turn, `CC(C)N(CCCNC(=O)Nc1ccc(C(C)(C)C)cc1)C[C@H]1O[C@@H](n2cc(Br)c3c(N)ncnc32)[C@H](O)[C@@H]1O` showed a viability (top concentration 46.1 µM) of 89.1.
In turn, `CC(=O)N1CCN(c2ccc(OC[C@H]3CO[C@](Cn4ccnc4)(c4ccc(Cl)cc4Cl)O3)cc2)CC1` came in with a viability (top concentration 46.1 µM) of 104.
Still for that read-out and setting: as for `CCC[C@H](NC(=O)[C@@H]1[C@H]2CCC[C@H]2CN1C(=O)[C@@H](NC(=O)[C@@H](NC(=O)c1cnccn1)C1CCCCC1)C(C)(C)C)C(=O)C(=O)NC1CC1`, the figure is 117.
Where the note is “top concentration 46.1 µM”, `CC1(C)C(N(O)C(=O)Nc2ccc(Cl)cc2)N(c2ccc(Cl)cc2)C(=O)N1CC(=O)N/N=C/C=C/c1ccc([N+](=O)[O-])o1` (stereo not given) came in with a viability of 85.4.
On the same count and under the same terms, as for `CC1=CC=C2N=C(NC(=O)CS\C3=N\C4=C(\SCC4)C(=O)N3C5=CC=CC=C5)SC2=C1`, the figure is 109; as for `O=C(NC1CC1)c1cccc(-c2ccc3c(NC(=O)C4CC4)n[nH]c3c2)c1`, 110; as for `OC(CN1CCC(Cc2ccc(F)cc2)CC1)c1ccc(Cl)cc1` (stereo not given), 103.
The same measure, in the same setting: as for `C[S+](=O)([O-])c1ccc([C@@H](O)[C@@H](CO)NC(=O)C(Cl)Cl)cc1`, the figure is 126; as for `C=CCc1cccc(/C=N/NC(=O)CN2CCN(Cc3ccccc3)CC2)c1O`, 73.5.
The same measure, in the same setting: as for `C#CCC(Cc1cnc2nc(N)nc(N)c2n1)c1ccc(C(=O)N[C@@H](CCC(=O)O)C(=O)O)cc1` (stereo not given in full), the figure is 95.2; as for `CN[C@@H]1Cc2cccc3[nH]c(=O)n(c23)C1`, 112; as for `CC[C@H]1CN2CCc3cc(OC)c(OC)cc3[C@@H]2C[C@@H]1C[C@H]1NCCc2cc(OC)c(OC)cc21`, 79.9.
With `Cc1cc(Cl)ccc1OCCCC(=O)NO`, the viability (top concentration 46.1 µM) was 89.3.
Still for that read-out and setting: as for `COc1ncnc(N[S+](=O)([O-])c2ccc(N)cc2)c1OC`, the figure is 137.
For `N#Cc1ccc(C(c2ccc(C#N)cc2)n2cncn2)cc1`, where the note is “top concentration 46.1 µM”, the viability was 95.7.
On the same count and under the same terms, as for `CCCNCC(O)COc1ccccc1C(=O)CCc1ccccc1` (stereo not given), the figure is 90.5; as for `COc1ccc(C(=O)CC(=O)c2ccc(C(C)(C)C)cc2)cc1`, 126.
For the setting “top concentration 46.1 µM”, `CC1=NN(c2ccc(C)c(C)c2)C(=O)/C1=N/Nc1cccc(-c2cccc(C(=O)O)c2)c1O` gave a viability of 101.
`CC(/C=C1\SC(=S)N(CC(=O)O)C1=O)=C\c1ccccc1`: where the note is “top concentration 46.1 µM”, the viability amounted to 132.
Same read-out and setting: the figure for `CO[C@H]1/C=C/O[C@@]2(C)Oc3c(C)c(O)c4c(c3C2=O)C2=NC3(CCN(CC(C)C)CC3)NC2=C(NC(=O)/C(C)=C\C=C\[C@H](C)[C@H](O)[C@@H](C)[C@@H](O)[C@@H](C)[C@H](OC(C)=O)[C@@H]1C)C4=O` is 118; for `CC(C)(C)OC(=O)CN(Cc1ccc(Cl)cc1)Cc1ccc([N+](=O)[O-])s1` it is 97.7; for `C[S+](=O)([O-])c1ccc(-c2cnc(N)c(C(=O)Nc3ccccc3)n2)cc1` it is 132.
On the same count and under the same terms, as for `COc1ccnc(C[S+]([O-])c2nc3cc(OC(F)F)ccc3[nH]2)c1OC` (stereo not given), the figure is 98.7; as for `CCN1\C=C(\C(O)=O)C(=O)C2=C1C=C(N3CCNCC3)C(=C2)F`, 121; as for `CN(C)CCN(Cc1ccc(Cl)cc1)c1ccccn1.Cl`, 97.6.
With `OC[C@H]1OC(O)C[C@@H](O)[C@@H]1O` (stereo not given in full), the viability (top concentration 46.1 µM) was found to be 126.
Same read-out and setting: the figure for `OCCNC1CCCc2c1[nH]c1ccc(-c3ccccc3)cc21` (stereo not given) is 107.
For the compound `Cc1cnc(Nc2ccc(OCCN3CCCC3)cc2)nc1Nc1cccc([S+](=O)([O-])NC(C)(C)C)c1`, the viability (top concentration 46.1 µM) came out at 141.
With `COc1ccc(C(C)=O)c(O)c1`, for the setting “top concentration 46.1 µM”, the viability came out at 103.
As to `N=C1N[C@H]2[C@H](CS[C@H]2CCCCC(=O)O)N1`, the viability (top concentration 23 µM) amounted to 134.
Consider `Nc1ccccc1NC(=O)c1ccc(CNC(=O)OCc2cccnc2)cc1`, for which, for the setting “top concentration 46.1 µM”, the viability was 110.
On the same count and under the same terms, as for `C[C@@H]1C[C@H]2[C@@H]3CC\C4=C\C(=O)\C=C/[C@]4(C)[C@@]3(Cl)[C@@H](O)C[C@]2(C)[C@@]1(OC(=O)C5=CC=CO5)C(=O)CCl`, the figure is 133; as for `COc1cc2nc(N3CCN(C(=O)c4ccco4)CC3)nc(N)c2cc1OC`, 23.4.
`CC1SC/2=C(C(O)=O)/C(=O)C3=CC(=C(C=C3N12)N4CCN(CC4)C\C5=C(C)\OC(=O)O5)F` (stereo not given) yielded a viability (top concentration 46.1 µM) of 112.
The same measure, in the same setting: the figure for `CN1\C(=C(\O)C2=CC=CC=C2[S+]1([O-])=O)C(=O)NC3=NC=C(C)S3` is 121; for `c1cc(-c2cnn3cc(-c4ccc(OCCN5CCCCC5)cc4)cnc23)ccn1` it is 48.4.
Still for that read-out and setting: as for `CC[C@H](CO)Nc1nc(NCc2ccccc2)c2ncn(C(C)C)c2n1`, the figure is 42.6.
On the same count and under the same terms, as for `Cc1coc2c1C(=O)C(=O)c1c-2ccc2c1CCCC2(C)C`, the figure is 113; as for `CCOc1cc(N2CCC(O)CC2)ccc1Nc1ncc2c(n1)N(C)c1ccccc1C(=O)N2C`, 89.8.
Where the note is “top concentration 46.1 µM”, `CCCN[C@H]1CCc2nc(N)sc2C1` registered a viability of 142.
Under “top concentration 46.1 µM”, `C[C@]12CC[C@@H]3c4ccc(OC(=O)N(CCCl)CCCl)cc4CC[C@H]3[C@@H]1CC[C@@H]2OP(=O)([O-])[O-].[Na+].[Na+]` came in with a viability of 124.
Turning to `c1ccc(-c2nn3c(c2-c2ccnc4cc(OCCN5CCOCC5)ccc24)CCC3)nc1`, for the setting “top concentration 46.1 µM”, the viability turned out to be 148.
`NCCc1c[nH]cn1` returned a viability (top concentration 46.1 µM) of 135.
The same measure, in the same setting: the figure for `C[C@H]([C@H](O)CCC(C)(C)O)[C@H]1CC[C@@]2(O)C/3=C/C(=O)[C@@H]4C[C@@H](O)[C@@H](O)C[C@]4(C)[C@H]3CC[C@]12C` is 120.
`CC(C)c1ccc2oc3nc(N)c(C(=O)O)cc3c(=O)c2c1`: for the setting “top concentration 46.1 µM”, the viability stood at 116.
Same read-out and setting: the figure for `CC(C)OC(=O)OCOP(=O)(CO[C@H](C)Cn1cnc2c(N)ncnc21)OCOC(=O)OC(C)C.O=C(O)C=CC(=O)O` is 118 and 94.5; for `CCNC(=O)c1cc2c(-c3cc(OCCN4CCCC4)c(Cl)cc3Cl)nc(N)nc2s1` it is 58.2; for `Cc1csc(-c2nnc(Nc3ccc(Oc4ncccc4-c4ccnc(N)n4)cc3)c3ccccc23)c1` it is 101.
The same measure, in the same setting: as for `c1ccc2c(CCNc3ccc(Nc4ccncc4)cc3)c[nH]c2c1`, the figure is 108; as for `OC[C@H]1O[C@@H](OCCc2ccc(O)cc2)[C@H](O)[C@@H](O)[C@@H]1O`, 107.
`CC(C)CN(C[C@@H](O)[C@H](Cc1ccccc1)NC(=O)O[C@H]1CCOC1)[S+](=O)([O-])c1ccc(N)cc1` returned a viability (top concentration 46.1 µM) of 109.
For the compound `O=C(CCN1CCN(C(=O)OCc2cc(Cl)cc(Cl)c2)CC1)c1ccc2[nH]c(=O)oc2c1`, under “top concentration 46.1 µM”, the viability came out at 109.
Turning to `CN(C)CCOc1ccc(-c2nc(-c3ccncc3)c(-c3ccc4c(c3)CC/C4=N\O)[nH]2)cc1`, the viability (top concentration 46.1 µM) worked out at 94.9.
With `CO[C@H]1O[C@@H]2O[C@@]3(C)CC[C@H]4[C@H](C)CC[C@@H]([C@H]1C)[C@@]24OO3`, the viability (top concentration 46.1 µM) stood at 116.

The values above are taken from the supplement of paper PMC6723410.
